The text below walks through data of US9663496B2, “AMPK-activating heterocyclic compounds and methods for using the same” (Rigel Pharmaceuticals, Inc., priority 2010, dated 2017).

A value given as a limit tells only on which side of the number the result lay.

The target of this assay is AMPK. The experiment in a line: AMPK activation, enzyme-linked immunosorbent assay. The assay is classed as biochemical. Conditions: EC50 for AMPK activation, ELISA. A digest of the protocol:
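Compounds were tested for their capacity to activate the kinase using standard, commercially available kit reagents and procedures.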
For the compound `N#Cc1ccc(CN2CCC(NC(=O)c3ccc(C(=O)N4CCN(C(=O)c5ccc(F)cc5)CC4)cn3)CC2)cc1` [Compound 76, N-(1-(4-cyanobenzyl)piperidin-4-yl)-5-(4-(4-fluorobenzoyl)piperazine-1-carbonyl)picolinamide], the EC50 was less than 500 nM.
Next, `O=C(NC1CCN(CC2CCCCC2)CC1)c1ccc(C(=O)N2CCN(Cc3ccc(F)cc3)CC2)cn1` [Compound 13, N-(1-(cyclohexylmethyl)piperidin-4-yl)-5-(4-(4-fluorobenzyl)piperazine-1-carbonyl)picolinamide]: 1000 to 5000 nM; `CC(=O)c1ccc(Oc2ccc(NC(=O)c3ccc(C(=O)N4CCN(Cc5ccc(F)cc5)CC4)nc3)cn2)cc1` [Compound 477, N-(6-(4-acetylphenoxy)pyridin-3-yl)-6-(4-(4-fluorobenzyl)piperazine-1-carbonyl)nicotinamide]: less than 500 nM; `CC(C)(C)OC(=O)N1CCC(NC(=O)c2ccc(C(=O)N3CCC(Oc4ccc(C#N)cc4)CC3)nc2)CC1` [Compound 333, tert-butyl 4-(6-(4-(4-cyanophenoxy)piperidine-1-carbonyl)nicotinamido)piperidine-1-carboxylate]: less than 500 nM.
Next, `O=C(Nc1ccc(Oc2ccc(F)cc2)nc1)c1ccc(C(=O)N2CCC(C(=O)c3ccc(F)cc3F)CC2)nc1` [Compound 348, 6-(4-(2,4-difluorobenzoyl)piperidine-1-carbonyl)-N-(6-(4-fluorophenoxy)pyridin-3-yl)nicotinamide]: less than 500 nM; `CC(=O)Nc1ccc(OC2CCN(C(=O)c3ccc(C(=O)NC4CCN(Cc5ccc(F)cc5)CC4)cn3)CC2)cc1` [Compound 406, 6-(4-(4-acetamidophenoxy)piperidine-1-carbonyl)-N-(1-(4-fluorobenzyl)piperidin-4-yl)nicotinamide]: 500 to 1000 nM.
In the case of `O=C(NC1CCN(Cc2ccccc2)CC1)c1ccc(Nc2ccc(Oc3ccccc3)cc2)cn1` [Compound 113, N-(1-benzylpiperidin-4-yl)-5-(4-phenoxyphenylamino) picolinamide] it was 1000 to 5000 nM.
As for `COc1ccc(C(=O)C2CCN(C(=O)c3ccc(C(=O)N[C@H]4CC[C@@H](Oc5ccc(F)cc5)CC4)cn3)CC2)cc1` [Compound 316, N-((cis)-4-(4-fluorophenoxy)cyclohexyl)-6-(4-(4-methoxybenzoyl)piperidine-1-carbonyl)nicotinamide], the EC50 was less than 500 nM.
Take `N#Cc1ccc(CN2CCC(NC(=O)c3ccc(C(=O)N4CCC(C(=O)c5ccc(F)cc5F)CC4)cn3)CC2)cc1` [Compound 271, N-(1-(4-cyanobenzyl)piperidin-4-yl)-5-(4-(2,4-difluorobenzoyl)piperidine-1-carbonyl)picolinamide]: the EC50 is less than 500 nM.
Next, `O=C(N[C@H]1CC[C@@H](Oc2ccc(F)cc2)CC1)c1ccc(C(=O)N2CCC(Oc3ccc(F)cc3)CC2)cn1` [Compound 312, N-((cis)-4-(4-fluorophenoxy)cyclohexyl)-5-(4-(4-fluorophenoxy)piperidine-1-carbonyl)picolinamide]: less than 500 nM; `COc1ccc(O[C@H]2CC[C@@H](NC(=O)c3ccc(C(=O)N4CCC(Oc5ccc(C(F)(F)F)cc5)CC4)cn3)CC2)cc1` [Compound 185, N-((cis)-4-(4-methoxyphenoxy)cyclohexyl)-5-(4-(4-(trifluoromethyl)phenoxy)piperidine-1-carbonyl)picolinamide]: less than 500 nM.
In the case of `O=C(NC1CCN(Cc2ccc(OC(F)(F)F)cc2)CC1)c1ccc(C(=O)N2CCC(Oc3ccc(C(=O)C4CC4)cc3)CC2)nc1` [Compound 455, 6-(4-(4-(cyclopropanecarbonyl)phenoxy)piperidine-1-carbonyl)-N-(1-(4-(trifluoromethoxy)benzyl)piperidin-4-yl)nicotinamide] it was less than 500 nM.
